Source: ChEMBL document CHEMBL3734667 (Bioorg Med Chem, 2015)
Active and inactive are the calls of the source. No cut-off for these calls is given here.

What was measured:
[1] = test system: Semliki Forest virus; test: Antiviral activity against Semliki forest virus assessed as inhibition of virus growth at 170 uM; assay type: functional
[2] = test system: Influenza B virus; test: Antiviral activity against Influenza B virus; assay type: functional
[3] = test system: Poliovirus 2; test: Antiviral activity against Human poliovirus 2; assay type: functional; details: Enterovirus C
[4] = test system: Poliovirus 1; test: Antiviral activity against Human poliovirus 1 Sabin; assay type: functional, organism-based; details: Enterovirus C
[5] = Inhibition of HCV helicase; parameters: species or system Hepacivirus hominis
[6] = Cytotoxicity against human MT4 cells assessed as cell viability after 96 hrs by MTT assay; assay type: cell-based
[7] = Cytotoxicity against MDBK cells assessed as cell viability after 48 to 96 hrs by MTT assay; assay type: cell-based, Bos taurus; details: cattle
[8] = Cytotoxicity against BHK cells assessed as cell viability after 48 to 96 hrs by MTT assay; assay type: cell-based, Mesocricetus auratus; details: hamster
[9] = Cytotoxicity against african green monkey Vero 76 cells assessed as cell viability after 48 to 96 hrs by crystal violet staining method; assay type: cell-based; details: chlorocebus sabaeus
[10] = test system: Bovine viral diarrhea virus 1; test: Antiviral activity against BVDV infected in MDBK cells assessed as inhibition of virus-induced cytopathogenicity after 3 to 4 days by MTT assay; assay type: functional, organism-based; details: Bovine viral diarrhea virus isolates and strains
[11] = test system: Yellow fever virus; test: Antiviral activity against YFV infected in BHK-21 cells assessed as inhibition of virus-induced cytopathogenicity after 3 to 4 days by MTT assay; assay type: functional, organism-based
[12] = test system: Coxsackievirus B5; test: Antiviral activity against human CVB5 infected in african green monkey Vero76 cells assessed as inhibition of virus-induced cytopathogenicity after 3 days by plaque reduction assay; assay type: functional, organism-based; details: Enterovirus B, Vero 76, 72 h
[13] = test system: Human orthopneumovirus; test: Antiviral activity against human RSV infected in african green monkey Vero76 cells assessed as inhibition of virus-induced cytopathogenicity after 5 days by plaque reduction assay; assay type: functional, organism-based; details: human respiratory syncytial virus, Vero 76, 120 h
[14] = test system: Poliovirus 1; test: Antiviral activity against Human poliovirus 1 Sabin infected in african green monkey Vero76 cells assessed as inhibition of virus-induced cytopathogenicity by plaque reduction assay; assay type: functional, organism-based; details: Enterovirus C, Vero 76
[15] = Selectivity index, ratio of CC50 for MDBK cells to EC50 for BVDV; parameters: species or system Bovine viral diarrhea virus 1
[16] = Selectivity index, ratio of CC50 for african green monkey Vero76 cells to EC50 for human CVB5; parameters: species or system Coxsackievirus B5, Vero 76
[17] = Selectivity index, ratio of CC50 for african green monkey Vero76 cells to EC50 for human RSV; parameters: species or system human respiratory syncytial virus, Vero 76
[18] = test system: Human immunodeficiency virus 1; test: Antiviral activity against HIV-1 infected in MT4 cells assessed as inhibition of virus-induced cytopathogenicity after 4 days by MTT assay; assay type: functional, organism-based; details: Human immunodeficiency virus 1, MT4, 96 h
[19] = target: T1, Peroxisome proliferator-activated receptor alpha (Homo sapiens) (UniProt Q07869); test: (§1) Agonist activity at human PPAR alpha in human HepG2 cells after 20 hrs by luciferase reporter assay; assay type: cell-based
T1 sequence (whole entry): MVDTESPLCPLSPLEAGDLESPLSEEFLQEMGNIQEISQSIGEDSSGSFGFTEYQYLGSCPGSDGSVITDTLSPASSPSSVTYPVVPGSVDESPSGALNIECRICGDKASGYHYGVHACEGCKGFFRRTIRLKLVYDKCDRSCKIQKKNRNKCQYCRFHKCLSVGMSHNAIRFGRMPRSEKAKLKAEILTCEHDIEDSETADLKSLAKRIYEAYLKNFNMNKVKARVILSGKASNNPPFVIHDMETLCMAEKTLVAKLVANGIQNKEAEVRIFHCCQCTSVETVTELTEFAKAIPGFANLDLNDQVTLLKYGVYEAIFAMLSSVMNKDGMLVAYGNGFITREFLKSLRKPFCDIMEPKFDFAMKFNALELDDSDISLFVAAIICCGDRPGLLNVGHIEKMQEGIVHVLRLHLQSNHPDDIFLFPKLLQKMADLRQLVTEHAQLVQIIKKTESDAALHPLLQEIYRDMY

[20] = target: T2, Peroxisome proliferator-activated receptor gamma (Homo sapiens) (UniProt P37231); test: (§2) Agonist activity at human PPAR gamma in human HepG2 cells after 20 hrs by luciferase reporter assay; assay type: cell-based
T2 sequence (whole entry): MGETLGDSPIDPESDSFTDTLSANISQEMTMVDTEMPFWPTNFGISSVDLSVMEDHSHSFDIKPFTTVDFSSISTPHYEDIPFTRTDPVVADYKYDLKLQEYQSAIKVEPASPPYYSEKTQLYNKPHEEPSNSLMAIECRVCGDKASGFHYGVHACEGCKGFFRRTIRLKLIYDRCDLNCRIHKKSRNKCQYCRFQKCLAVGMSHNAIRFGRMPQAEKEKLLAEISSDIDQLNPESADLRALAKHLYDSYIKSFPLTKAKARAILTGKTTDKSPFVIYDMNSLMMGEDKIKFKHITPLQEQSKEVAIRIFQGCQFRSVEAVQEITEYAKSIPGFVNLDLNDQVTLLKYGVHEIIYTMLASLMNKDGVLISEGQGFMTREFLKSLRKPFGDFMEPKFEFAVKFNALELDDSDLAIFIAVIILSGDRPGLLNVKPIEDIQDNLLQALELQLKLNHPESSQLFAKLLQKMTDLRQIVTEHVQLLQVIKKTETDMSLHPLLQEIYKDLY

[21] = test system: Vesicular stomatitis virus; test: Antiviral activity against VSV; assay type: functional, organism-based
[22] = test system: Vaccinia virus; test: Antiviral activity against Vaccinia virus; assay type: functional, organism-based; details: Orthopoxvirus vaccinia
[23] = test system: Mammalian orthoreovirus 1; test: Antiviral activity against Reo-1 virus infected in BHK-21 cells assessed as inhibition of virus-induced cytopathogenicity after 3 to 4 days by MTT assay; assay type: functional, cell-based; details: Mammalian orthoreovirus 1, BHK-21
[24] = Selectivity index, ratio of CC50 for BHK-21 cells to EC50 for YFV; parameters: species or system Yellow fever virus
[25] = Selectivity index, ratio of CC50 for african green monkey Vero76 cells to EC50 for human Sb-1; parameters: species or system Human poliovirus 1 strain Sabin, Vero 76
[26] = test system: dengue virus type 2; test: Antiviral activity against DENV-2 infected in BHK-21 cells assessed as inhibition of virus-induced cytopathogenicity after 3 to 4 days by MTT assay; assay type: functional, organism-based
[27] = Selectivity index, ratio of CC50 for BHK-21 cells to EC50 for DENV-2
[28] = test system: West Nile virus; test: Antiviral activity against WNV infected in BHK-21 cells assessed as inhibition of virus-induced cytopathogenicity after 3 to 4 days by MTT assay; assay type: functional, organism-based
[29] = test system: Human alphaherpesvirus 1; test: Antiviral activity against HSV1; assay type: functional, organism-based
[30] = test system: Respiratory syncytial virus; test: Antiviral activity against RSV; assay type: functional, organism-based; details: human respiratory syncytial virus
[31] = target: Peroxisome proliferator-activated receptor alpha (Homo sapiens, UniProt Q07869); test: as §1; assay type: cell-based
[32] = target: Peroxisome proliferator-activated receptor gamma (Homo sapiens, UniProt P37231); test: as §2; assay type: cell-based
[33] = test system: Coxsackievirus B2; test: Antiviral activity against Human coxsackievirus B2; assay type: functional, organism-based; details: Enterovirus B
[34] = Selectivity index, ratio of CC50 for BHK-21 cells to EC50 for WNV; parameters: species or system West Nile virus
[35] = Selectivity index, ratio of CC50 for human MT4 cells to EC50 for HIV-1; assay type: toxicity, cell-based; details: human immunodeficiency virus 1, MT4 cells; read-out: Ratio CC50/EC50

Structure (SMILES)	CC50 at 96 h [6]	CC50 [7]	CC50 [8]	CC50 [9]	EC50 [10]	EC50 [11]	EC50 [12]	EC50 [13]	EC50 [14]	Ratio CC50/EC50 [15]	EC50 [18]	EC50 [21]	EC50 [22]	also measured
O=c1[nH]c2cc(S(=O)(=O)n3nnc4cc(Cl)ccc43)ccc2o1	–	–	–	–	–	–	–	–	–	–	–	–	–	inhibition at 170 µM [1]: 99%
Clc1c(Cl)c(Cl)c2[nH]nnc2c1Cl	–	–	–	–	–	–	–	–	–	–	–	–	–	EC75 [2]: 3 µM; EC75 [3]: 8.1 µM
CC(=O)Nc1ccc(-n2nnc3ccc(C(F)(F)F)cc32)cc1	–	–	–	–	–	–	–	–	–	–	–	–	–	EC50 [4]: 30 µM
Oc1ccc2nn[nH]c2c1/N=N/c1ccc(Cl)cc1	–	–	–	–	–	–	–	–	–	–	–	–	–	EC75 [2]: 4.3 µM
CCCn1nc2c(Br)c(Br)c(Br)c(Br)c2n1	–	–	–	–	–	–	–	–	–	–	–	–	–	IC50 [5]: 5.8 µM
CC(C)(CCCOc1ccc(-n2nc3ccccc3n2)cc1)C(=O)O	47 µM	61 µM	31 µM	25 µM	27 µM	> 100 µM	4 µM	5 µM	> 100 µM	2.26	> 100 µM	> 100 µM	> 100 µM	Ratio CC50/EC50 [16]: 6.25; Ratio CC50/EC50 [17]: 5; Activity [19]: inactive; Activity [20]: inactive
Oc1ccc(-n2nc3ccc(C(F)(F)F)cc3n2)cc1	≥ 100 µM	47 µM	65 µM	> 100 µM	30 µM	17 µM	> 100 µM	10 µM	80 µM	1.57	> 100 µM	> 100 µM	> 100 µM	EC50 [23]: > 100 µM; Ratio CC50/EC50 [24]: 3.82; Ratio CC50/EC50 [17]: >10; Ratio CC50/EC50 [25]: >1.25; EC50 [26]: 17 µM; Ratio CC50/EC50 [27]: 3.82; EC50 [28]: > 100 µM; EC50 [29]: > 100 µM
O=c1n(Cc2nc3ccccc3n2CCCCO)c2cnccc2n1C1CC1	–	–	–	–	–	–	–	–	–	–	–	–	–	EC50 [30]: 0.01 µM
Cc1cc(-n2nc3ccccc3n2)cc(C)c1OC(C)(C)C(=O)O	> 100 µM	> 100 µM	> 100 µM	≥ 100 µM	> 100 µM	> 100 µM	> 100 µM	> 100 µM	> 100 µM	–	> 100 µM	> 100 µM	> 100 µM	EC50 [31]: 0.096 µM; EC50 [32]: 0.48 µM
CCC(=O)Nc1ccc(-n2nc3cc(C)c(C)cc3n2)cc1	–	–	–	–	–	–	–	–	–	–	–	–	–	EC50 [33]: 10 µM
OCC1OC(n2nnc3cc(Cl)c(Cl)cc32)C(O)C1O (stereo not given)	–	–	–	–	–	–	–	–	–	–	–	–	–	EC75 [2]: 750 µM; IC50 [5]: 1.5 µM
Oc1ccc(-n2nc3cc(Cl)c(Cl)cc3n2)cc1	47 µM	37 µM	28 µM	50 µM	14 µM	6 µM	25 µM	8 µM	> 100 µM	2.64	> 100 µM	> 100 µM	> 100 µM	EC50 [23]: > 100 µM; Ratio CC50/EC50 [24]: 4.67; Ratio CC50/EC50 [34]: 2.15; Ratio CC50/EC50 [16]: 2; Ratio CC50/EC50 [17]: 6.25; EC50 [26]: 8 µM; Ratio CC50/EC50 [27]: 3.5; EC50 [28]: 13 µM; EC50 [29]: > 100 µM
CN(C)c1cccc(C(=O)OCCn2nc3ccccc3n2)c1	> 100 µM	> 100 µM	> 100 µM	> 100 µM	> 100 µM	> 100 µM	> 100 µM	> 100 µM	–	–	56 µM	> 100 µM	> 100 µM	selectivity ratio [35]: 1.78
Clc1ccc2c(c1)nc(Cn1nnc3ccccc31)n2CC[C@@H]1CCCN2CCCC[C@H]12	–	–	–	–	–	–	–	–	–	–	–	–	–	EC50 [30]: 0.02 µM
C[C@@]1(O)[C@H](O)[C@@H](CO)O[C@H]1n1cnc2c(=O)[nH]c(N)nc21 [2'-B-METHYL-GUANOSINE]	> 100 µM	> 100 µM	> 60 µM	> 100 µM	–	1.5 µM	20 µM	> 100 µM	> 100 µM	>58.8	–	> 100 µM	> 100 µM	Ratio CC50/EC50 [24]: >66.7; Ratio CC50/EC50 [16]: >5; EC50 [26]: 1.2 µM; EC50 [28]: 0.7 µM; EC50 [29]: > 100 µM
COc1ccc2nn(-c3ccc(OCC(C)(C)C(=O)O)cc3)nc2c1	≥ 100 µM	> 100 µM	100 µM	65 µM	66 µM	> 100 µM	24 µM	11 µM	> 100 µM	>1.51	> 100 µM	> 100 µM	> 100 µM	Ratio CC50/EC50 [16]: 2.71; Ratio CC50/EC50 [17]: 5.91; Activity [19]: inactive; Activity [20]: inactive
